Measured values: patent US8735406B2, “8-oxodihydropurine derivative” (Dainippon Sumitomo Pharma Co., Ltd., priority 2009, dated 2014)
Where two headings read alike, the source gives them in different places.

Target: T1, FAAH (Rattus norvegicus, UniProt P97612)
T1 construct: Preparation of Rat Brain Membranes Preparations (FAAH Enzyme Solution); from tissue; host or cells: rat cerebrum (brain membrane preparation)
T1 sequence (P97612 1-579): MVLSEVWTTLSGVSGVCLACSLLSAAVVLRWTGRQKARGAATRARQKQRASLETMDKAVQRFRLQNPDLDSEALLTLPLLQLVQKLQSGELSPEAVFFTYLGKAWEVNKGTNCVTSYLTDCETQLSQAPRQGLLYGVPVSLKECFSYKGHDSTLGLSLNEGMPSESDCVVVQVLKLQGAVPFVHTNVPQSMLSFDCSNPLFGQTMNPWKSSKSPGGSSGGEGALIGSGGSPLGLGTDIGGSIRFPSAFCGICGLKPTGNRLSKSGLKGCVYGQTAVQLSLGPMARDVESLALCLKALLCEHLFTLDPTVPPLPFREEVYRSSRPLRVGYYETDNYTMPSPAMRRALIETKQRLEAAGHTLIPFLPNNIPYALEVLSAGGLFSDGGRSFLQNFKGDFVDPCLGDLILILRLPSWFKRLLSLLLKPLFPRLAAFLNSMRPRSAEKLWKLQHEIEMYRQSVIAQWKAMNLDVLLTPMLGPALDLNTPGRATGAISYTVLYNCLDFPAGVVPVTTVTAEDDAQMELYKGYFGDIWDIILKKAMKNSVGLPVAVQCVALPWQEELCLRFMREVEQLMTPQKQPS
Assay: Determination of FAAH inhibitory activity in rat (rat brain membrane preparations, [3H]-anandamide hydrolysis)
Type: biochemical
Details: for inhibition at 0.1 µM: read-out: FAAH Inhibition, Inhibition Rate at 100 nM; for IC50: test substance 0.1 nM to 1 μM, read-out: FAAH Inhibition IC50
Procedure: Determination of FAAH Inhibitory Activity in Rat
The preparation of rat brain membranes preparations and the determination of FAAH inhibitory activity were carried out according to the Jonsson et al. method [Br. J. Pharmacol., 133, 1263 (2001)].
(1) Preparation of Rat Brain Membranes Preparations (FAAH Enzyme Solution)
The cerebrum was extracted from rats and was freeze-stored at −80° C. To the frozen cerebrum was added 4° C. enzyme homogenization buffer (20 mM HEPES-buffer pH 7.0, 1 mM MgCl2) and the mixture was homogenized using a homogenizer in ice and the homogenates were centrifuged (36,000×g for 20 minutes). After repeating operations of homogenization and centrifugation, the tissue pellets were re-suspended with 4° C. enzyme homogenization buffer. The re-suspensions were incubated at 37° C. for 15 minutes and were centrifuged (36,000×g for 20 minutes), and the resulting tissue membranes were then re-suspended with enzyme solution preparation buffer (50 mM Tris-HCl buffer pH 7.4, 1 mM EDTA, 3 mM MgCl2). The protein concentration in the resulting membrane preparations were determined according to a colorimetry method (BCA Protein Assay: Pierce Inc.) and the preparations were freeze-stored at −80° C. until used for assay.
(2) Screening of Substances for Inhibiting FAAH Activity
To the above membrane preparations (final concentration 100 μg/mL) were added a solution of test substances in DMSO (final concentration in DMSO 1%) and an assay buffer (for final preparation; 22 mM Tris-HCl (pH 7.6), 1.4 mM EDTA, 1.5% BSA, 0.6 mM MgCl2) and the resulting mixtures were preincubated at 37° C. for 10 minutes. Thereto was added a substrate solution (for final preparation; 2 nM [^3H]-Anandamide (American Radiolabeled Chemicals Inc.)+2 μM Anandamide (Sigma-Aldrich Co.)) (final assay volume of 200 μL) and the resulting mixtures were incubated at 37° C. for 10 minutes. Here in control experiment, DMSO was added instead of the solution of test substance in DMSO. Also in blank experiment, DMSO was added instead of the solution of test substance in DMSO and an enzyme solution preparation buffer was also added instead of the membrane preparations. After the incubation, thereto was added a 400 μL ice-cooled solution of chloroform and methanol (1:1 ratio by volume) and the resulting mixtures were stirred. An ethanolamine (ethanolamine-1-[^3H]) as a decomposed product was separated into an upper layer (water/methanol layer) by centrifugation (1,000×g for 10 minutes). The upper layer 200 μL was transferred into 96 well Deepwell Luma Plate-96 (PerkinElmer Inc.) and the radioactivity was measured by microplate scintillation counter (TopCount NXT™: […].). The substances showing a lower measured value compared to those of control were selected as the compound having a FAAH inhibitory activity.
(3) Determination of IC50 Value
The test substances were prepared such that the final concentration of the compounds is within the range of 0.1 nM to 1 μM and were then examined on the effect on FAAH activity according to the above-mentioned protocol.

[1] = rat brain membrane preparations, 100 nM test substance
[2] = rat brain membrane preparations

| inhibition at 0.1 µM [1] | IC50 [2] | SMILES | inhibition at 0.1 µM |
| --- | --- | --- | --- |
| 16% | > 100 nM | COc1cccc(-c2ncc3c(n2)n(C)c(=O)n3C(=O)N2CC[C@@H](OC)C2)c1 [Example 47] |  |
| 100% | 4 nM | COc1cccc(-c2ncc3c(n2)n(C)c(=O)n3C(=O)N(C)C)c1 [Example 48, 2-(3-Methoxyphenyl)-N,N,9-trimethyl-8-oxo-8,9-dihydro-7H-purine-7-carboxamide] |  |
| 99% | 6 nM | COc1cccc(-c2ncc3c(n2)n(C)c(=O)n3C(=O)N2CCCCC2)c1 [Example 49, 2-(3-Methoxyphenyl)-9-methyl-7-(piperidin-1-ylcarbonyl)-7,9-dihydro-8H-purine-8-one] |  |
| 98% | 9 nM | Cn1c(=O)n(C(=O)N2CCN(c3ccc(C(F)(F)F)cn3)CC2)c2cnc(-c3ccccc3)nc21 [Example 50, 9-Methyl-2-phenyl-7-({4-[5-(trifluoromethyl)-pyridin-2-yl]piperazin-1-yl}carbonyl)-7,9-dihydro-8H-purine-8-one] |  |
| 97% | 25 nM | Cn1c(=O)n(C(=O)N2CCN(c3ncccn3)CC2)c2cnc(-c3ccccc3)nc21 [Example 51, 9-Methyl-2-phenyl-7-{[4-(pyrimidin-2-yl)piperazin-1-yl]carbonyl}-7,9-dihydro-8H-purine-8-one] |  |
| 97% | 19 nM | Cc1cccc(N2CCN(C(=O)n3c(=O)n(C)c4nc(-c5ccccc5)ncc43)CC2)n1 [Example 53, 9-Methyl-7-{[4-(6-methylpyridin-2-yl)piperazin-1-yl]carbonyl}-2-phenyl-7,9-dihydro-8H-purine-8-one] |  |
| 99% | 24 nM | COc1cccc(N2CCN(C(=O)n3c(=O)n(C)c4nc(-c5ccccc5)ncc43)CC2)n1 [Example 54, 7-{[4-(6-Methoxypyridin-2-yl)piperazine-1-yl]carbonyl}-9-methyl-2-phenyl-7,9-dihydro-8H-purine-8-one] |  |
| 94% | 25 nM | Cn1c(=O)n(C(=O)N2CCN(c3nccs3)CC2)c2cnc(-c3ccccc3)nc21 [Example 55, 9-Methyl-2-phenyl-7-{[4-(1,3-thiazol-2-yl)piperazin-1-yl]carbonyl}-7,9-dihydro-8H-purine-8-one] |  |
| 100% | 7 nM | Cc1ccc(N2CCN(C(=O)n3c(=O)n(C)c4nc(-c5ccccc5)ncc43)CC2)nc1 [Example 56, 9-Methyl-7-{[4-(5-methylpyridin-2-yl)piperazin-1-yl]carbonyl}-2-phenyl-7,9-dihydro-8H-purine-8-one] |  |
| 101% | 5 nM | COc1cccc(-c2ncc3c(n2)n(C)c(=O)n3C(=O)N2CCC2)c1 [Example 57, 7-(Azetidin-1-ylcarbonyl)-2-(3-methoxyphenyl)-9-methyl-7,9-dihydro-8H-purine-8-one] |  |
| 76% | 62 nM | COc1cccc(-c2ncc3c(n2)n(C)c(=O)n3C(=O)N2CCOCC2)c1 [Example 58] |  |
| 99% | 26 nM | COCCN(C)C(=O)n1c(=O)n(C)c2nc(-c3cccc(OC)c3)ncc21 [Example 59, N-(2-Methoxyethyl)-2-(3-methoxyphenyl)-N,9-dimethyl-8-oxo-8,9-dihydro-7H-purine-7-carboxamide] |  |
| 99% | 6 nM | CCN(C)C(=O)n1c(=O)n(C)c2nc(-c3cccc(OC)c3)ncc21 [Example 60, N-Ethyl-2-(3-methoxyphenyl)-N,9-dimethyl-8-oxo-8,9-dihydro-7H-purine-7-carboxamide] |  |
| 90% | 26 nM | COc1cccc(-c2ncc3c(n2)n(C)c(=O)n3C(=O)N2CC[C@@H](F)C2)c1 [Example 62, 7-{[(3R)-3-Fluoropyrrolidin-1-yl]carbonyl}-2-(3-methoxyphenyl)-9-methyl-7,9-dihydro-8H-purine-8-one] |  |
| 100% | 17 nM | COc1cccc(-c2ncc3c(n2)n(C)c(=O)n3C(=O)N2CC[C@H](F)C2)c1 [Example 63, 7-{[(3S)-3-Fluoropyrrolidin-1-yl]carbonyl}-2-(3-methoxyphenyl)-9-methyl-7,9-dihydro-8H-purine-8-one] |  |
| 98% | 3 nM | COc1cccc(-c2ncc3c(n2)n(C)c(=O)n3C(=O)N(C)CCOc2ccccc2)c1 [Example 65, 2-(3-Methoxyphenyl)-N,9-dimethyl-8-oxo-N-(2-phenoxyethyl)-8,9-dihydro-7H-purine-7-carboxamide] |  |
| 93% | 46 nM | COc1cccc(-c2ncc3c(n2)n(C)c(=O)n3C(=O)N2CCC(Cc3ccccc3)CC2)c1 [Example 66, 7-[(4-Benzylpiperidin-1-yl)carbonyl]-2-(3-methoxyphenyl)-9-methyl-7,9-dihydro-8H-purine-8-one] |  |
| 97% | 7 nM | COc1cccc(-c2ncc3c(n2)n(C)c(=O)n3C(=O)N2CCN(CCc3ccccc3)CC2)c1 [Example 67, 2-(3-Methoxyphenyl)-9-methyl-7-{[4-(2-phenylethyl-)piperazin-1-yl]carbonyl}-7,9-dihydro-8H-purine-8-one] |  |
| 98% | 6 nM | COc1cccc(-c2ncc3c(n2)n(C)c(=O)n3C(=O)N2CCC(CCc3ccc(Cl)cc3)CC2)c1 [Example 68, 7-({4-[2-(4-Chlorophenyl)ethyl]piperidin-1-yl}carbonyl)-2-(3-methoxyphenyl)-9-methyl-7,9-dihydro-8H-purine-8-one] |  |
| 41% | > 100 nM | CCN(CC)C(=O)n1c(=O)n(C)c2nc(-c3cccc(OC)c3)ncc21 [Example 70] |  |
| 103% | 9 nM | COc1cccc(-c2ncc3c(n2)n(C)c(=O)n3C(=O)N(C)Cc2ccc(F)cc2)c1 [Example 71, N-(4-Fluorobenzyl)-2-(3-methoxyphenyl)-N,9-dimethyl-8-oxo-8,9-dihydro-7H-purine-7-carboxamide] |  |
| 99% | 23 nM | COc1cccc(-c2ncc3c(n2)n(C)c(=O)n3C(=O)N(C)Cc2cccc(F)c2)c1 [Example 72, N-(3-Fluorobenzyl)-2-(3-methoxyphenyl)-N,9-dimethyl-8-oxo-8,9-dihydro-7H-purine-7-carboxamide] |  |
| 89% | 45 nM | COc1cccc(CN(C)C(=O)n2c(=O)n(C)c3nc(-c4cccc(OC)c4)ncc32)c1 [Example 73, N-(3-Methoxybenzyl)-2-(3-methoxyphenyl)-N,9-dimethyl-8-oxo-8,9-dihydro-7H-purine-7-carboxamide] |  |

| SMILES | inhibition at 0.1 µM [1] | IC50 [2] | inhibition at 0.1 µM |
| --- | --- | --- | --- |
| COc1cccc(-c2ncc3c(n2)n(C)c(=O)n3C(=O)N(C)CCc2ccc(Cl)cc2)c1 [Example 69, N-[2-(4-Chlorophenyl)ethyl]-2-(3-methoxyphenyl)-N,9-dimethyl-8-oxo-8,9-dihydro-7H-purine-7-carboxamide] |  | 2 nM | 101% |
| COc1cccc(-c2ncc3c(n2)n(C)c(=O)n3C(=O)N(C)CCc2ccc(F)cc2)c1 [Example 74, N-[2-(4-Fluorophenyl)ethyl]-2-(3-methoxyphenyl)-N,9-dimethyl-8-oxo-8,9-dihydro-7H-purine-7-carboxamide] |  | < 1 nM | 104% |
